For data set [1], the system named is HER2+ metastatic breast cancer. As to the kind of experiment: Phase 1 study: antitumor activity (modified RECIST v1.1). The class given is in vivo, human. The procedure: Tumor imaging assessments were conducted every 6 weeks during the first 24 weeks (relative to C1D1) and every 9 weeks thereafter per investigator review according to modified RECIST v1.1 until progressive disease, starting a new anticancer therapy or withdrawal of informed consent (Additional file 1).
Tumor imaging assessments were conducted every six weeks during the first 24 weeks (relative to C1D1) and every nine weeks thereafter per investigator review according to modified RECIST v1.1 until progressive disease, starting a new anti-cancer therapy or withdrawal of informed consent. Patients who achieved an objective response had confirmatory scans at least four weeks apart.
The modified RECIST 1.1 used in this study includes both CNS assessment and extracranial assessment. A maximum of five measurable extracranial lesions, with a maximum of two lesions per organ, were selected in patients with extracranial disease. In addition, a maximum of five measurable intracranial lesions were selected in patients with intracranial disease. […] An overall response will be derived based on extracranial and intracranial response as described in the below table.

Data set [2] concerns 121 recombinant human kinases. The data set can be described thus: Kinome selectivity profile, 121-kinase panel. The class given is biochemical. The following applies: 1 µM DZD1516, Km ATP. The procedure: In vitro profiling of the 121-recombinant kinase panel was performed at Eurofins UK Ltd (Dundee, UK). In brief, recombinant kinases were incubated within an appropriate buffer containing peptide substrate and radiolabelled γ-^33P-ATP together with the presence or absence of the required compound concentration. The reaction was initiated by adding ATP/Mg^2+ mix. After incubation for 40 minutes at room temperature, the reaction was stopped by adding 3% phosphoric acid solution. A portion of the reaction mix was spotted onto P30 filtermat to trap peptide and washed three times for 5 minutes with phosphoric acid to remove non-specific γ-^33P-ATP. The substrate phosphorylation was then measured by scintillation counting, which determined the level of kinase activity inhibition compared to control reactions. Percentage inhibition data for each kinase was mapped to the kinome tree (www.kinhub.org).

Data set [3] in a line: Caco-2 passive permeability. The data set is classed as in vitro ADME. To be noted: human, Caco-2, pH 7.4; read-out: Caco-2 Papp (intrinsic passive permeability). The source says:
(§1) Passive permeability (Papp) characterizes the rate across the cell membrane due to passive diffusion. A high permeability enables the rapid establishment of equilibrium among plasma, CSF, and brain compartments. Except for passive permeability, sufficient unbound drug concentration in the brain is governed by efflux transporters, including P-gp (MDR1, ABCB1) and BCRP, at BBB. Efflux ratio (ER) reflects the liability of a compound to be pumped out of the brain by BBB efflux transporters, which is indicated by the distribution disequilibrium between the plasma and the brain compartments.
Again, DZD1516 and DZ2678 permeability were evaluated in a bi-directional assay in Caco-2 cells at 5 μM. The efflux ratio of DZD1516 and DZ2678, with or without novobiocin (a selective BCRP inhibitor), determined whether DZD1516 or DZ2678 was transported via BCRP in Caco-2 cells. The apical-to-basolateral (A-B) and basolateral-to-apical (B-A) transport of DZD1516/DZ2678 in HBSS (25 mM HEPES, pH 7.4) with 0.1% BSA was measured across Caco-2 cell monolayers in the absence and presence of BCRP inhibitor, novobiocin (30 μM). […] Transport of 5 µM DZD1516/DZ2678 and control compound was determined by quantifying substrate concentration in the incubation medium of the donor compartment at the beginning of the incubation period and both donor and receiver compartments at the end of the incubation period. […]
For orientation: Caco-2 monolayers are a common model of the intestinal barrier.

Data set [4] has as its system BT474C1-Luci Mono1 LM xenograft. As to the kind of experiment: LM (leptomeningeal metastasis) BT474C1-Luci Mono1 xenograft model. The data set is classed as in vivo, nude mice. The procedure:
The LM model was generated by implanting 10 µl of cell suspension containing 1 × 10^4 BT474C1-Luci Mono1 cells through cisterna magna into each mouse under anaesthesia following similar procedures as described in the literature (31). 17β- ESTRADIOL (90-day release 0.36 mg/pellet) were injected subcutaneously 24 hrs before cell inoculation. Under anaesthesia, mice were placed in the prone position with their neck draped over a cylinder. The head was immobilized with the thumb and mid-finger, with the index finger palpating the space between the occiput and C1. BT474c1-Luci Mono1 cell suspension at 10 µl containing 0.01 million cells were injected intracisternally. When the bioluminescent signal reached > 5 × 10^6 photon/s, animals were randomized for treatment. […]
In both BM and LM models, the day of randomization was defined as Day 0 and the treatment was started one day after randomization. The bioluminescence signals and body weight of the mice were measured once weekly. Relative bioluminescence intensity on a specific day was calculated by dividing the bioluminescence intensity on that day by the bioluminescence intensity on Day 0. The tumour growth inhibition (TGI) was calculated by formula: TGI (%) = (1-(relative bioluminescence intensity of treated group)/(relative bioluminescence intensity of control group)) x 100.Establishment of SC model

The next data set has as its target T1, P-gp (MDR1) (Homo sapiens, UniProt P08183).
T1 construct: expressed in transfected cells; host or cells: MDCKII-MDR1
As to the kind of experiment: P-gp efflux ratio, bi-directional transport assay. The data set is classed as in vitro ADME.
From the text: as §1
[…] The adjusted efflux ratio was used to determine if DZD1516/DZ2678 underwent active efflux. Verapamil, a P-glycoprotein (P-gp) inhibitor, was used to identify if any active transport processes were mediated through P-gp. The apical-to-basolateral (A-B) and basolateral-to-apical (B-A) transport of DZD1516/DZ2678 in HBSS (25 mM HEPES, pH 7.4) with 0.1% BSA was measured across MDCKII-MDR1 cell monolayers in the absence and presence of the P-gp inhibitor, verapamil (100 μM). The apical-to-basolateral (A-B) and basolateral-to-apical (B-A) transport of DZD1516/DZ2678 in HBSS (25 mM HEPES, pH 7.4) with 0.1% BSA was also measured across MDCKII cell monolayers in the absence and presence of the P-gp inhibitor, verapamil. Incubations were performed at approximately 37°C for 120 min, with the functionality of the test system being confirmed using 5 μM digoxin as a positive control substrate. […] determined by quantifying substrate concentration in the incubation medium of the donor compartment at the beginning of the incubation period and both donor and receiver compartments at the end of the incubation period. The data was used to calculate the apparent permeability (Papp). All incubations were performed in triplicate, and the integrity of the cell monolayers was confirmed using the marker Lucifer yellow.

T1 sequence (P08183 whole entry): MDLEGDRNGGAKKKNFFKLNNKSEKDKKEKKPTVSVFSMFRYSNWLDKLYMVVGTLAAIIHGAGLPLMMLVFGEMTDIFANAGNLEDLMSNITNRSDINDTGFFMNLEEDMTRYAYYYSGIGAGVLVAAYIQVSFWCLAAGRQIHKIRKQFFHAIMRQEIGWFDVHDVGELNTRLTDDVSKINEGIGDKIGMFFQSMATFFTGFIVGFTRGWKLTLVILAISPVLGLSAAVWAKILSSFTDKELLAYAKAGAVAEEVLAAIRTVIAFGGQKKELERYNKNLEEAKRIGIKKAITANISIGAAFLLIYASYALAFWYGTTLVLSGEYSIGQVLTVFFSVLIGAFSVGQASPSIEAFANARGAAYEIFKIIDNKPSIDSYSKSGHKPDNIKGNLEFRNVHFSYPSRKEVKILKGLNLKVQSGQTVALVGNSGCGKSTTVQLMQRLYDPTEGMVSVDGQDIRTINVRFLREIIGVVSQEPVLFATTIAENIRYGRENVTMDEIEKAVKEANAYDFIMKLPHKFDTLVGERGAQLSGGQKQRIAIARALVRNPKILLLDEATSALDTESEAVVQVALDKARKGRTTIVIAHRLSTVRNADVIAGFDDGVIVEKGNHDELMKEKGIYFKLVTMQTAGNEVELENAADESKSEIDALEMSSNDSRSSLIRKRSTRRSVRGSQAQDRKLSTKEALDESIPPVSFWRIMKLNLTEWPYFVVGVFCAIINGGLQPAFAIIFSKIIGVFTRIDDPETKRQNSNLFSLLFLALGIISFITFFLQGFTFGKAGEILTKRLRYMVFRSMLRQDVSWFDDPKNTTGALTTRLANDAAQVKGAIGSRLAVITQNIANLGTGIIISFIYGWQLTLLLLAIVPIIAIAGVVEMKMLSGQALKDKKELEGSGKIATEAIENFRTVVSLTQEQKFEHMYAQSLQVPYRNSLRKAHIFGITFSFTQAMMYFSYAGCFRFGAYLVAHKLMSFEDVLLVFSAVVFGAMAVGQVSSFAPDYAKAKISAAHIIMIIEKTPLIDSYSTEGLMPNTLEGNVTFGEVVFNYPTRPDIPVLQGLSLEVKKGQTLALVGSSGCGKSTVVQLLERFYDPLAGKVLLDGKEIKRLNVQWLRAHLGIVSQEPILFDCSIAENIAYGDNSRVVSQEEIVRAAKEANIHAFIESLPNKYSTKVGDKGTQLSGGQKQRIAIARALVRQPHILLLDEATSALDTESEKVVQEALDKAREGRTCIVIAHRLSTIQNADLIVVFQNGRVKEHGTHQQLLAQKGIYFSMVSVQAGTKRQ

Consider `COc1cc(O[C@H]2CCN(C)CC2(F)F)c2c(Nc3ccc(Oc4ccn5ncnc5c4)c(C)c3)ncnc2c1` [DZD1516], for which the disease control rate in data set [1] (MTD (250 mg), 3/5) is 60%. The “patients who achieved stable disease” value in data set [1] (all dose levels) is on record as 6 out of 23. Also, the “best antitumor efficacy in intracranial, extracranial and overall lesions” value in data set [1] (patients, median seven lines of prior systemic therapy) is “stable disease”. Further, in data set [2], the “number of kinases inhibited > 50%” value turned out to be 12. In data set [3], the Papp at 120 min, 5 μM came out at 90 ×10⁻⁶ cm/s. The TGI in data set [4] (100 mg/kg twice daily) was determined as 57%; in data set [4] (150 mg/kg twice daily), 81%. In addition, the efflux ratio at 120 min, 1 µM on P-gp (MDR1) (human, MDCK-MDR1, pH 7.4) was less than 2. Further, on P-gp (MDR1) (listed as Cpd-5), the “Efflux ratio P-gp @1 µM” value was found to be 1.6.

Broadly, the Papp is the rate of passage across a membrane or cell layer, normalised by area and donor concentration. What is called TGI is how far tumour growth fell short of that in controls. Low values mean a weaker effect on the tumour, high ones a stronger effect on the tumour. As usually defined, the efflux ratio is a quotient of directional permeabilities that is used to spot active efflux.

The record behind these values is publication PMC10327353 (Breast Cancer Research : BCR, 2023).
